This passage reports TGI results from PubChem BioAssay (NCI).

Test systems include MCF7 breast; LOX IMVI melanoma; A498 renal; CCRF-CEM leukemia; NCI-H460 lung; SF-295 CNS; A549 NSCLC; SF-539 CNS; MALME-3M melanoma; DU-145 prostate; KM12 colon; SF-268 CNS; IGROV1 ovarian; MDA-MB-435; COLO 205 colon; OVCAR-3 ovarian; SW-620 colon; SR leukemia; HCT-116 colon.
Common to all, as to assay: NCI anticancer screen, dose series, 48 h

Structures are written as SMILES.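 A five-concentration, 48-hour dose response in 96-well plates underlies each endpoint, interpolated linearly between surrounding concentrations. The concentration for full growth arrest is given as TGI.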

With `CCC(=O)NC(NNS(=O)(=O)c1ccc(C)cc1)(C(F)(F)F)C(F)(F)F`, the TGI in the assay with MCF7 breast, in the assay with LOX IMVI melanoma, in the assay on A498 renal, in the assay on CCRF-CEM leukemia, in the assay with NCI-H460 lung and in the assay with SF-295 CNS was greater than 100 µM throughout. Further, the TGI with A549 NSCLC, in the assay on SF-539 CNS, in the assay on MALME-3M melanoma, with DU-145 prostate, in the assay with KM12 colon and with SF-268 CNS was greater than 100 µM each time. Further, the TGI in the assay with IGROV1 ovarian was greater than 100 µM; with MDA-MB-435, 48 µM; in the assay with COLO 205 colon, greater than 100 µM; in the assay with OVCAR-3 ovarian, greater than 10 µM; in the assay on SW-620 colon, greater than 100 µM; in the assay on SR leukemia it was greater than 100 µM. Besides, the TGI in the assay on HCT-116 colon is greater than 100 µM.
`CCOP(=O)(OCC)/C(C#N)=C/c1cccn1C`: the TGI with MCF7 breast is greater than 100 µM; in the assay with LOX IMVI melanoma, greater than 100 µM; in the assay with A498 renal, greater than 100 µM; with CCRF-CEM leukemia, 89 µM; in the assay on NCI-H460 lung it was greater than 100 µM; in the assay with SF-295 CNS it was greater than 100 µM. Also, the TGI in the assay with A549 NSCLC, in the assay with SF-539 CNS, with MALME-3M melanoma, in the assay with DU-145 prostate, in the assay on KM12 colon and with SF-268 CNS was greater than 100 µM throughout. For the same compound, the TGI in the assay with IGROV1 ovarian, with MDA-MB-435, in the assay on COLO 205 colon, in the assay with OVCAR-3 ovarian, with SW-620 colon and in the assay on SR leukemia was greater than 100 µM each time. In the assay on HCT-116 colon, this compound displayed a TGI greater than 100 µM.
`NC(=S)N/N=C1\CCc2ccccc2C1`: the TGI in the assay with MCF7 breast, in the assay with LOX IMVI melanoma, with A498 renal, in the assay on CCRF-CEM leukemia, with NCI-H460 lung and in the assay on SF-295 CNS was greater than 100 µM throughout. The TGI with A549 NSCLC, in the assay with SF-539 CNS, in the assay on MALME-3M melanoma, in the assay on DU-145 prostate, with KM12 colon and in the assay with SF-268 CNS was greater than 100 µM each time. Besides, the TGI with IGROV1 ovarian, in the assay on MDA-MB-435, in the assay with COLO 205 colon, in the assay with OVCAR-3 ovarian, with SW-620 colon and in the assay with SR leukemia was greater than 100 µM throughout. This compound yielded a TGI in the assay with HCT-116 colon greater than 100 µM.
Take `NC(N)=NS(=O)(=O)c1ccc(NCc2cccc3c(=O)c4ccc(Cl)cc4oc23)cc1`: the TGI was greater than 25 µM in the assay on MCF7 breast; greater than 11.3 µM in the assay on LOX IMVI melanoma; greater than 15.3 µM in the assay with A498 renal; greater than 7.9 µM in the assay on CCRF-CEM leukemia; 7.3 µM with NCI-H460 lung; greater than 14.9 µM in the assay on SF-295 CNS. The TGI in the assay on A549 NSCLC is greater than 25 µM; in the assay with SF-539 CNS, greater than 13.1 µM; in the assay with MALME-3M melanoma it was greater than 19.2 µM; with DU-145 prostate, 17.3 µM; with KM12 colon, greater than 25 µM; in the assay with SF-268 CNS it was 12.7 µM. The TGI in the assay with IGROV1 ovarian was greater than 11 µM; in the assay on MDA-MB-435, greater than 25 µM; in the assay on COLO 205 colon it was greater than 20.3 µM; in the assay on OVCAR-3 ovarian, greater than 18.3 µM; in the assay on SW-620 colon it was greater than 16.8 µM; with SR leukemia it was greater than 25 µM. In addition, the TGI with HCT-116 colon was greater than 22.4 µM.
Turning to `C=C(Cl)C(Cl)(CBr)CCCC(C)C` (configuration not stated), the TGI with MCF7 breast is 28.5 µM; in the assay with LOX IMVI melanoma it was greater than 100 µM; with A498 renal, 34 µM; in the assay with CCRF-CEM leukemia, greater than 100 µM; with NCI-H460 lung, 30.2 µM; in the assay on SF-295 CNS it was 30 µM. For the same compound, the TGI in the assay with A549 NSCLC is 54.8 µM; with SF-539 CNS, 22.7 µM; in the assay on MALME-3M melanoma, greater than 100 µM; with DU-145 prostate it was 23.7 µM; with KM12 colon, 24.2 µM; with SF-268 CNS, 40.1 µM. In addition, the TGI in the assay on IGROV1 ovarian was greater than 100 µM; in the assay on MDA-MB-435 it was greater than 100 µM; with COLO 205 colon it was 34.9 µM; with OVCAR-3 ovarian, 12.4 µM; in the assay with SW-620 colon, greater than 84 µM; in the assay with SR leukemia it was greater than 100 µM. Besides, the TGI in the assay with HCT-116 colon came out at 24 µM.
For the compound `CN(C)Cc1cc(C(=O)/C=C/c2ccc(Cl)cc2Cl)cc(CN(C)C)c1O`, the TGI in the assay with MCF7 breast was found to be 15.3 µM; in the assay with LOX IMVI melanoma it was 2.49 µM; in the assay with A498 renal, 8.49 µM; with CCRF-CEM leukemia it was 8.88 µM; in the assay with NCI-H460 lung it was 4.4 µM; in the assay with SF-295 CNS it was 14 µM. Moreover, the TGI with A549 NSCLC was 11.9 µM; with SF-539 CNS, 17 µM; in the assay on MALME-3M melanoma, 23.5 µM; in the assay with DU-145 prostate, 16.7 µM; with KM12 colon, 4.51 µM; in the assay on SF-268 CNS it was 20 µM. Also, the TGI was 10.4 µM in the assay with IGROV1 ovarian; 17.1 µM with MDA-MB-435; 2.76 µM in the assay on COLO 205 colon; 11.6 µM with OVCAR-3 ovarian; 11.3 µM with SW-620 colon; greater than 100 µM in the assay with SR leukemia. In the assay with HCT-116 colon, this compound yielded a TGI of 11.7 µM.
Consider `COP(=O)(OC)[C@@](O)(c1ccccc1)[C@@H](O)[C@@H](O)c1ccccc1`, for which the TGI in the assay on MCF7 breast was 83.8 µM; with LOX IMVI melanoma it was 37.9 µM; with A498 renal, greater than 100 µM; in the assay with CCRF-CEM leukemia, 50.9 µM; in the assay with NCI-H460 lung, greater than 100 µM; with SF-295 CNS it was greater than 100 µM. Besides, the TGI with A549 NSCLC, in the assay on SF-539 CNS, with MALME-3M melanoma, with DU-145 prostate, with KM12 colon and with SF-268 CNS was greater than 100 µM in each case. Also, the TGI in the assay with IGROV1 ovarian was greater than 100 µM; with MDA-MB-435, greater than 100 µM; with COLO 205 colon it was greater than 100 µM; with OVCAR-3 ovarian, greater than 100 µM; with SW-620 colon it was greater than 100 µM; with SR leukemia, 1.91 µM. Also, in the assay on HCT-116 colon, the TGI is greater than 100 µM.
`O=C1NCC2(CCN(CC3COc4ccccc4O3)CC2)N1c1ccccc1` (configuration not stated): the TGI in the assay with MCF7 breast, in the assay with LOX IMVI melanoma, in the assay on A498 renal, in the assay with CCRF-CEM leukemia, in the assay on NCI-H460 lung and in the assay on SF-295 CNS was greater than 100 µM in each case. Further, the TGI in the assay with A549 NSCLC, in the assay with SF-539 CNS, in the assay with MALME-3M melanoma, in the assay on DU-145 prostate, in the assay on KM12 colon and in the assay with SF-268 CNS was greater than 100 µM in each case. Further, the TGI in the assay with IGROV1 ovarian, in the assay with MDA-MB-435, in the assay with COLO 205 colon, in the assay on OVCAR-3 ovarian, with SW-620 colon and in the assay on SR leukemia was greater than 100 µM throughout. The same compound showed a TGI in the assay on HCT-116 colon greater than 100 µM.
